Here are results for 16 molecules from patent US20250011300A1, “PIPERAZINYLSULFONYLARYL COMPOUNDS FOR TREATMENT OF BACTERIAL INFECTIONS” (Hoffmann-La Roche Inc., priority 2021, published 2025).

For assay [1], the system named is E. coli (ATCC 25922). In words: Minimal Inhibitory Concentration (MIC) assay, E. coli. Type of assay: cell-based. The note with it: Escherichia coli, ATCC25922; E. coli ATCC 25922, CAMHB, 20 hours at 35° C.; read-out: MIC E. coli ATCC 25922. The protocol: (§1) Example 122: Minimal Inhibitory Concentration Protocol (MIC) Assay
(§2) The in vitro potency of compounds to inhibit E. coli (ATCC 25922) and K. pneumonia (ATCC 43816) growth was assessed by MIC (Minimal Inhibitory Concentration) assay. Samples were prepared from 10 mM DMSO stock solutions. After serial 2-fold dilution in DMSO in a master plate (Greiner, Cat No: 651201), 180 μL sterile distilled water was added to 20 μL each aliquot of the samples. Then 10 μL diluted compounds were transferred into a new assay plate (Costar, 3599).
(§3) The growth medium Cation-Adjusted Mueller Hinton Broth (CAMHB) was prepared by adding the 20 mg per liter CaCl2) and 20 mg per liter MgCl2 into the MHB medium (Jianglai Company, sterilized).
(§4) Vials of each of the test microorganisms were maintained frozen in the vapor phase of a liquid nitrogen freezer. The bacteria E. coli ATCC 25922 (KWIKSTIK, 0335K) and K. pneumonia ATCC 43816 were taken out from liquid nitrogen freezer, then thawed in room temperature, and diluted in the CAMHB medium to achieve a final inoculum of 5×10^5 CFU/mL. 90 μL CAMHB with bacteria was dispensed to the assay plate and pipetted 5 times.
(§5) Then the assay plates were incubated for 20 hours at 35° C. in ambient air. Following incubation, the MIC (μg/mL), the lowest concentration of drug that inhibits visible growth of the microorganism was read and recorded throw the microscope.

Assay [2] concerns the target Escherichia coli LpxH (UDP-2,3-diacylglucosamine hydrolase) (Escherichia coli (strain K12), UniProt P43341). Nature of the assay: 50% Inhibitory Concentration (IC50) to LpxH, UMP/CMP-Glo Glycosyltransferase Assay kit. The format is biochemical. The protocol: Example 121: 50% Inhibitory Concentration (IC50) to UDP-2,3-diacylglucosamine hydrolase (LpxH)
The inhibitory potency of molecules to UDP-2,3-diacylglucosamine hydrolase (LpxH) was determined using the UMP/CMP-Glo™ Glycosyltransferase Assay kit. LpxH hydrolyzes the pyrophosphate bond of UDP-2,3-diacylglucosamine (UDP-DAG) to yield 2,3-diacylglucosamine 1-phosphate (lipid X) and UMP. The assay kit could quantify the UMP production by convert the UMP to ATP and generate light in a luciferase reaction. The compound's effect on the LpxH activity is detected by measuring the light using a luminometer (Envision).

Assay [3] relates to K. pneumonia (ATCC 43816). In words: Minimal Inhibitory Concentration (MIC) assay, K. pneumonia. The following applies: Klebsiella pneumoniae; K. pneumoniae ATCC43816, CAMHB, 20 hours at 35° C.; read-out: MIC K. pneumoniae ATCC43816. The format is cell-based. The protocol: as §1, §2, §3, §4, §5

SMILES strings stand for the structures. Converted amounts (≈) assume the structure as drawn. Bounds are passed on as bounds.

Escherichia coli LpxH (UDP-2,3-diacylglucosamine hydrolase), sequence (P43341 whole entry): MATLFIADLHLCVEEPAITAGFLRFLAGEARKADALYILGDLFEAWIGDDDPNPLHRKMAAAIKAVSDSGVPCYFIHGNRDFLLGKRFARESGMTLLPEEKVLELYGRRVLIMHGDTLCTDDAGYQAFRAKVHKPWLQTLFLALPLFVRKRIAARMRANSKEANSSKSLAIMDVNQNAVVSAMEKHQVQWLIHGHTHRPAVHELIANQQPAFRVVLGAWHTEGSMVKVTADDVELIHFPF

Consider `O=C1OC2C(O)C(CO)OC2N1c1ccc(S(=O)(=O)N2CCN(c3cc(C(F)(F)F)cc(Cl)n3)CC2)cc1` (stereo not drawn) [Example 21, 3-[4-[4-[6-Chloro-4-(trifluoromethyl)-2-pyridyl]piperazin-1-yl]sulfonylphenyl]-6-hydroxy-5-(hydroxymethyl)-3a,5,6,6a-tetrahydrofuro[2,3-d]oxazol-2-one], for which the MIC came out at 0.91 µg/mL (≈ 1.57 µM) in assay [1] and 1.81 µg/mL (≈ 3.13 µM) in assay [3]. The same molecule gave an IC50 in assay [2] of 10.4 nM.
For `CO[C@@H]1OC(C2OC(=O)N(c3ccc(S(=O)(=O)N4CCN(c5cc(C(F)(F)F)cc(Cl)n5)CC4)cc3)C2C)[C@@H](O)[C@H]1O` (stereo partly drawn) [Example 22, 3-[4-[4-[6-Chloro-4-(trifluoromethyl)-2-pyridyl]piperazin-1-yl]sulfonylphenyl]-5-[(3S,4R,5R)-3,4-dihydroxy-5-methoxy-tetrahydrofuran-2-yl]-4-methyl-oxazolidin-2-one] the same measures were 1.99 µg/mL (≈ 3.12 µM), 1.99 µg/mL (≈ 3.12 µM) and under 3.14 nM.
On the same counts, the results for `NCCN1CCC2(CC1)CN(c1ccc(S(=O)(=O)N3CCN(c4cc(C(F)(F)F)cc(Cl)n4)CC3)cc1)C(=O)O2` [Example 24, 8-(2-Aminoethyl)-3-[4-[4-[6-chloro-4-(trifluoromethyl)-2-pyridyl]piperazin-1-yl]sulfonylphenyl]-1-oxa-3,8-diazaspiro[4.5]decan-2-one] are 2.24 µg/mL (≈ 3.71 µM), 2.24 µg/mL (≈ 3.71 µM) and 14.9 nM.
For `NCCN1CCC[C@H]2OC(=O)N(c3ccc(S(=O)(=O)N4CCN(c5cc(C(F)(F)F)cc(Cl)n5)CC4)cc3)[C@H]2C1` [Example 25, (3aS,8aR)-5-(2-aminoethyl)-3-[4-[4-[6-chloro-4-(trifluoromethyl)-2-pyridyl]piperazin-1-yl]sulfonylphenyl]-3a,4,6,7,8,8a-hexahydrooxazolo[4,5-c]azepin-2-one] the same measures were 2.6 µg/mL (≈ 4.31 µM), 2.6 µg/mL (≈ 4.31 µM) and 24.9 nM.
In the case of `CNCCN1CCC[C@H]2OC(=O)N(c3ccc(S(=O)(=O)N4CCN(c5cc(C(F)(F)F)cc(Cl)n5)CC4)cc3)[C@H]2C1` [Example 26, (3aS,8aR)-3-[4-[4-[6-chloro-4-(trifluoromethyl)-2-pyridyl]piperazin-1-yl]sulfonylphenyl]-5-[2-(methylamino)ethyl]-3a,4,6,7,8,8a-hexahydrooxazolo[4,5-c]azepin-2-one], the MIC was 2.64 µg/mL (≈ 4.28 µM) in assay [1] and 5.28 µg/mL (≈ 8.56 µM) in assay [3]. This molecule also had an IC50 in assay [2] of 32.4 nM.
As for `CNCC1CN(c2ccc(S(=O)(=O)N3CCN(c4cc(C(F)(F)F)cc(Cl)n4)CC3)cc2)C(=O)O1` (stereo not drawn) [Example 27, 3-[4-[4-[6-Chloro-4-(trifluoromethyl)-2-pyridyl]piperazin-1-yl]sulfonylphenyl]-5-(methylaminomethyl)oxazolidin-2-one], the MIC in assay [1] stood at 1.78 µg/mL (≈ 3.33 µM); in assay [3] it was 3.57 µg/mL (≈ 6.69 µM). In assay [2], the IC50 is 22.5 nM.
For `CN(C)CC1CN(c2ccc(S(=O)(=O)N3CCN(c4cc(C(F)(F)F)cc(Cl)n4)CC3)cc2)C(=O)O1` (stereo not drawn) [Example 28, 3-[4-[4-[6-Chloro-4-(trifluoromethyl)-2-pyridyl]piperazin-1-yl]sulfonylphenyl]-5-[(dimethylamino)methyl]oxazolidin-2-one] the same measures were 1.83 µg/mL (≈ 3.34 µM), 1.83 µg/mL (≈ 3.34 µM) and 12.8 nM.
On the same counts, the results for `O=C1OC(CN2CCNCC2)CN1c1ccc(S(=O)(=O)N2CCN(c3cc(C(F)(F)F)cc(Cl)n3)CC2)cc1` (stereo not drawn) [Example 29, 3-[4-[4-[6-Chloro-4-(trifluoromethyl)-2-pyridyl]piperazin-1-yl]sulfonylphenyl]-5-(piperazin-1-ylmethyl)oxazolidin-2-one] are 1.96 µg/mL (≈ 3.33 µM), 1.96 µg/mL (≈ 3.33 µM) and 25.5 nM.
On to `O=C1OC(CN2C[C@@H](O)[C@@H](O)C2)CN1c1ccc(S(=O)(=O)N2CCN(c3cc(C(F)(F)F)cc(Cl)n3)CC2)cc1` (stereo partly drawn) [Example 30, 3-[4-[4-[6-Chloro-4-(trifluoromethyl)-2-pyridyl]piperazin-1-yl]sulfonylphenyl]-5-[[cis-3,4-dihydroxypyrrolidin-1-yl]methyl]oxazolidin-2-one], for which the MIC was 2.01 µg/mL (≈ 3.32 µM) in assay [1] and 4.02 µg/mL (≈ 6.63 µM) in assay [3]. In assay [2], it took 14.9 nM to reach half-maximal inhibition (IC50).
For `NC1CN(CC2CN(c3ccc(S(=O)(=O)N4CCN(c5cc(C(F)(F)F)cc(Cl)n5)CC4)cc3)C(=O)O2)C1` (stereo not drawn) [Example 31, 5-[(3-Aminoazetidin-1-yl)methyl]-3-[4-[4-[6-chloro-4-(trifluoromethyl)-2-pyridyl]piperazin-1-yl]sulfonylphenyl]oxazolidin-2-one] the same measures were 2.15 µg/mL (≈ 3.74 µM), 4.31 µg/mL (≈ 7.5 µM) and 6.96 nM.
On the same counts, the results for `O=C1OC(CN2CC3(CNC3)C2)CN1c1ccc(S(=O)(=O)N2CCN(c3cc(C(F)(F)F)cc(Cl)n3)CC2)cc1` (stereo not drawn) [Example 32, 3-[4-[4-[6-Chloro-4-(trifluoromethyl)-2-pyridyl]piperazin-1-yl]sulfonylphenyl]-5-(2,6-diazaspiro[3.3]heptan-2-ylmethyl)oxazolidin-2-one] are 8.94 µg/mL (≈ 14.9 µM), 8.94 µg/mL (≈ 14.9 µM) and 25 nM.
On to `NCC1CN(CC2CN(c3ccc(S(=O)(=O)N4CCN(c5cc(C(F)(F)F)cc(Cl)n5)CC4)cc3)C(=O)O2)C1` (stereo not drawn) [Example 33, 5-[[3-(Aminomethyl)azetidin-1-yl]methyl]-3-[4-[4-[6-chloro-4-(trifluoromethyl)-2-pyridyl]piperazin-1-yl]sulfonylphenyl]oxazolidin-2-one], for which the MIC in assay [1] is 1.1 µg/mL (≈ 1.87 µM); in assay [3], 2.2 µg/mL (≈ 3.73 µM). The IC50 in assay [2] was 15.3 nM.
For `O=C1OC(CNC2CCNC2)CN1c1ccc(S(=O)(=O)N2CCN(c3cc(C(F)(F)F)cc(Cl)n3)CC2)cc1` (stereo not drawn) [Example 34, 3-[4-[4-[6-Chloro-4-(trifluoromethyl)-2-pyridyl]piperazin-1-yl]sulfonylphenyl]-5-[(pyrrolidin-3-ylamino)methyl]oxazolidin-2-one] the same measures were 4.39 µg/mL (≈ 7.45 µM), 4.39 µg/mL (≈ 7.45 µM) and 27.2 nM.
On the same counts, the results for `NCC1CN(CC2CC(=O)N(c3ccc(S(=O)(=O)N4CCN(c5cc(C(F)(F)F)cc(Cl)n5)CC4)cc3)C2)C1` (stereo not drawn) [Example 35, 4-[[3-(Aminomethyl)azetidin-1-yl]methyl]-1-[4-[4-[6-chloro-4-(trifluoromethyl)-2-pyridyl]piperazin-1-yl]sulfonylphenyl]pyrrolidin-2-one] are 0.64 µg/mL (≈ 1.09 µM), 1.27 µg/mL (≈ 2.16 µM) and under 3.41 nM.
On the same counts, the results for `CN1CCN(CC2CC(=O)N(c3ccc(S(=O)(=O)N4CCN(c5cc(C(F)(F)F)cc(Cl)n5)CC4)cc3)C2)CC1` (stereo not drawn) [Example 36, 1-[4-[4-[6-Chloro-4-(trifluoromethyl)-2-pyridyl]piperazin-1-yl]sulfonylphenyl]-4-[(4-methylpiperazin-1-yl)methyl]pyrrolidin-2-one] are 1.88 µg/mL (≈ 3.13 µM), 3.76 µg/mL (≈ 6.26 µM) and 26.6 nM.
As for `CN(C)CC1CN(CC2CC(=O)N(c3ccc(S(=O)(=O)N4CCN(c5cc(C(F)(F)F)cc(Cl)n5)CC4)cc3)C2)C1` (stereo not drawn) [Example 37, 1-[4-[4-[6-Chloro-4-(trifluoromethyl)-2-pyridyl]piperazin-1-yl]sulfonylphenyl]-4-[[3-[(dimethylamino)methyl]azetidin-1-yl]methyl]pyrrolidin-2-one], the MIC amounted to 2.64 µg/mL (≈ 4.29 µM) in assay [1] and 5.27 µg/mL (≈ 8.57 µM) in assay [3]. This molecule also gave an IC50 in assay [2] of 48.8 nM.

As usually defined, the MIC is the smallest concentration in the dilution series that meets the test's criterion for growth inhibition. For orientation: IC50 means the point on the concentration scale where inhibition reaches its midpoint. Lower therefore signals greater potency in that assay.
